# Experimental data as given in ChEMBL document CHEMBL1135808, “A new type of mixed anhydride and its applications to the synthesis of 7-substituted 8-chloro-5,5-dioxoimidazo[1,2-b][1,4,2]benzodithiazines with in vitro antitumor activity” (2002).
# How the values were obtained:
# Type in all cases: functional
# MCF7 = assay: Log of molar concentration leading to 50% cell death against breast cancer MCF 7 cell line was reported; settings: Homo sapiens, read-out: Log LC50 (the source's name) (converted)
# A498 [1] = assay: In vitro total growth inhibition against renal cancer A-498 cell lines was reported.; settings: Homo sapiens, read-out: Log TGI (converted)
# UACC-257 [2] = assay: In vitro total growth inhibition against melanoma UACC-257 cell lines was reported.; settings: Homo sapiens, read-out: Log TGI (converted)
# 786-0 [3] = assay: Log of molar concentration leading to 50% cell death against renal cancer […] cell line was reported; settings: Homo sapiens, read-out: Log LC50 (the source's name) (converted)
# SR = assay: Log of molar concentration leading to 50% cell death against leukemia SR cell line was reported; settings: Homo sapiens, read-out: Log LC50 (the source's name) (converted)
# OVCAR-4 = assay: In vitro growth inhibition against ovarian cancer OVCAR-4 cell line was reported.; settings: Homo sapiens
# SW-620 [4] = assay: Log of molar concentration leading to 50% cell death against colon cancer SW620 cell line was reported; settings: Homo sapiens, read-out: Log LC50 (the source's name) (converted)
# A498 [5] = assay: In vitro growth inhibition against renal cancer A498 cell line was reported.; settings: Homo sapiens
# SK-MEL-5 = assay: In vitro growth inhibition against melanoma SK-MEL-5 cell line was reported.; settings: Homo sapiens
# NCI-H226 [6] = assay: In vitro growth inhibition against non-small-cell lung cancer NCI-H226 cell line was reported.; settings: Homo sapiens
# SK-MEL-28 = assay: Log of molar concentration leading to 50% cell death against melanoma SK-MEL-28 cell line was reported; settings: Homo sapiens, read-out: Log LC50 (the source's name) (converted)
# HL-60 = assay: In vitro total growth inhibition against leukemia HL-60(TB) cell lines was reported.; settings: Homo sapiens, read-out: Log TGI (converted)
# SK-MEL-2 = assay: In vitro total growth inhibition against melanoma SK-MEL-2 cell lines was reported.; settings: Homo sapiens, read-out: Log TGI (converted)
# SNB-75 [7] = assay: In vitro total growth inhibition against CNS cancer SNB-75 cell lines was reported.; settings: Homo sapiens, read-out: Log TGI (converted)
# [8] = (§1) Log of molar concentration leading to 50% cell death against breast cancer MDA-MB-435 cell line was reported; settings: Homo sapiens, read-out: Log LC50 (the source's name) (converted)
# SW-620 [9] = assay: In vitro growth inhibition against colon cancer SW620 cell line was reported.; settings: Homo sapiens
# COLO 205 = assay: In vitro growth inhibition against colon cancer COLO 205 cell line was reported.; settings: Homo sapiens
# SK-OV-3 = assay: In vitro total growth inhibition against ovarian cancer SK-OV-3 cell lines was reported.; settings: Homo sapiens, read-out: Log TGI (converted)
# NCI-H522 = assay: In vitro total growth inhibition against non-small-cell lung cancer NCI-522 cell lines was reported.; settings: Homo sapiens, read-out: Log TGI (converted)
# PC-3 = assay: In vitro total growth inhibition against prostate cancer PC-3 cell lines was reported.; settings: Homo sapiens, read-out: Log TGI (converted)
# RXF 393 = assay: In vitro growth inhibition against renal cancer RXF 393 cell line was reported.; settings: Homo sapiens
# NCI-H46 = assay: In vitro growth inhibition against non-small-cell lung cancer […] cell line was reported.; settings: Homo sapiens
# LOX IMVI = assay: Log of molar concentration leading to 50% cell death against melanoma LOX IMVI cell line was reported; settings: Homo sapiens, read-out: Log LC50 (the source's name) (converted)
# TK-10 = assay: Log of molar concentration leading to 50% cell death against renal cancer TK-10 cell line was reported; settings: Homo sapiens, read-out: Log LC50 (the source's name) (converted)
# OVCAR-8 = assay: In vitro growth inhibition against ovarian cancer OVCAR-8 cell line was reported.; settings: Homo sapiens
# NCI-H322M = assay: Log of molar concentration leading to 50% cell death against non-small-cell lung cancer NCI-H322M cell line was reported; settings: Homo sapiens, read-out: Log LC50 (the source's name) (converted)
# Tumor Cell line = assay: In vitro inhibition of 50% cell growth was reported as log of molar concentration for 60 cell lines.; settings: Homo sapiens
# NCI-H226 [10] = assay: In vitro total growth inhibition against non-small-cell lung cancer NCI-H226 cell lines was reported.; settings: Homo sapiens, read-out: Log TGI (converted)
# UACC-257 [11] = assay: Log of molar concentration leading to 50% cell death against melanoma UACC-257 cell line was reported; settings: Homo sapiens, read-out: Log LC50 (the source's name) (converted)
# Malme-3M [12] = assay: Log of molar concentration leading to 50% cell death against melanoma MALME 3M cell line was reported; settings: Homo sapiens, read-out: Log LC50 (the source's name) (converted)
# Malme-3M [13] = assay: In vitro total growth inhibition against melanoma MALME 3M cell lines was reported.; settings: Homo sapiens, read-out: Log TGI (converted)
# HCT-15 [14] = assay: In vitro total growth inhibition against colon cancer HCT-15 cell lines was reported.; settings: Homo sapiens, read-out: Log TGI (converted)
# NCI-H23 [15] = assay: In vitro growth inhibition against non-small-cell lung cancer NCI-H23 cell line was reported.; settings: Homo sapiens
# 786-0 [16] = assay: In vitro growth inhibition against renal cancer […] cell line was reported.; settings: Homo sapiens
# KM12 = assay: In vitro total growth inhibition against colon cancer KM12 cell lines was reported.; settings: Homo sapiens, read-out: Log TGI (converted)
# OVCAR-5 = assay: Log of molar concentration leading to 50% cell death against ovarian cancer […] cell line was reported; settings: Homo sapiens, read-out: Log LC50 (the source's name) (converted)
# OVCAR-3 = assay: Log of molar concentration leading to 50% cell death against ovarian cancer OVCAR-3 cell line was reported; settings: Homo sapiens, read-out: Log LC50 (the source's name) (converted)
# A549 = assay: Log of molar concentration leading to 50% cell death against non-small-cell lung cancer A 549/ATCC cell line was reported; settings: Homo sapiens, read-out: Log LC50 (the source's name) (converted)
# T47D = assay: Log of molar concentration leading to 50% cell death against breast cancer […] cell line was reported; settings: Homo sapiens, read-out: Log LC50 (the source's name) (converted)
# UO-31 = assay: Log of molar concentration leading to 50% cell death against renal cancer UO-31 cell line was reported; settings: Homo sapiens, read-out: Log LC50 (the source's name) (converted)
# NCI-H226 [17] = assay: Log of molar concentration leading to 50% cell death against non-small-cell lung cancer NCI-H226 cell line was reported; settings: Homo sapiens, read-out: Log LC50 (the source's name) (converted)
# ACHN = assay: Log of molar concentration leading to 50% cell death against renal cancer ACHN cell line was reported; settings: Homo sapiens, read-out: Log LC50 (the source's name) (converted)
# SN12C [18] = assay: Log of molar concentration leading to 50% cell death against renal cancer SN12C cell line was reported; settings: Homo sapiens, read-out: Log LC50 (the source's name) (converted)
# MDA-MB-435 = assay: as §1; settings: Homo sapiens, read-out: Log LC50 (the source's name) (converted)
# K562 = assay: Log of molar concentration leading to 50% cell death against leukemia K-562 cell line was reported; settings: Homo sapiens, read-out: Log LC50 (the source's name) (converted)
# SN12C [19] = assay: In vitro total growth inhibition against renal cancer SN12C cell lines was reported.; settings: Homo sapiens, read-out: Log TGI (converted)
# BT-549 = assay: Log of molar concentration leading to 50% cell death against breast cancer BT 549 cell line was reported; settings: Homo sapiens, read-out: Log LC50 (the source's name) (converted)
# MDA-N = assay: Log of molar concentration leading to 50% cell death against breast cancer MDA-Ncell line was reported; settings: Homo sapiens, read-out: Log LC50 (the source's name) (converted)
# SNB-19 = assay: Log of molar concentration leading to 50% cell death against CNS cancer SNB-19 cell line was reported; settings: Homo sapiens, read-out: Log LC50 (the source's name) (converted)
# HCT-15 [20] = assay: Log of molar concentration leading to 50% cell death against colon cancer HCT-15 cell line was reported; settings: Homo sapiens, read-out: Log LC50 (the source's name) (converted)
# SNB-75 [21] = assay: Log of molar concentration leading to 50% cell death against CNS cancer SNB-75 cell line was reported; settings: Homo sapiens, read-out: Log LC50 (the source's name) (converted)
# MOLT-4 = assay: Log of molar concentration leading to 50% cell death against leukemia MOLT-4 cell line was reported; settings: Homo sapiens, read-out: Log LC50 (the source's name) (converted)
# A498 [22] = assay: Log of molar concentration leading to 50% cell death against renal cancer A498 cell line was reported; settings: Homo sapiens, read-out: Log LC50 (the source's name) (converted)
# NCI-H23 [23] = assay: Log of molar concentration leading to 50% cell death against non-small-cell lung cancer NCI-H23 cell line was reported; settings: Homo sapiens, read-out: Log LC50 (the source's name) (converted)
# SF-268 = assay: In vitro total growth inhibition against CNS cancer SF-268 cell lines was reported.; settings: Homo sapiens, read-out: Log TGI (converted)
# CCRF-CEM = assay: Log of molar concentration leading to 50% cell death against leukemia CCRF-CEM cell line was reported; settings: Homo sapiens, read-out: Log LC50 (the source's name) (converted)
compound,measurement,setting,value
Cc1ccc2cccc(NC(=O)c3cc4c(cc3Cl)Sc3nccn3S4(=O)=O)c2n1,CC50,MCF7,38.9 µM
same,TGI,A498 [1],40.7 µM
same,TGI,UACC-257 [2],26.9 µM
same,CC50,786-0 [3],91.2 µM
same,CC50,SR,27.5 µM
same,GI50,OVCAR-4,11 µM
same,CC50,SW-620 [4],58.9 µM
same,GI50,A498 [5],16.2 µM
same,GI50,SK-MEL-5,10.7 µM
same,GI50,NCI-H226 [6],15.1 µM
same,CC50,SK-MEL-28,75.9 µM
same,TGI,HL-60,0.01 µM
same,TGI,SK-MEL-2,32.4 µM
same,TGI,SNB-75 [7],30.9 µM
same,CC50,[8],55 µM
same,GI50,SW-620 [9],7.76 µM
same,GI50,COLO 205,17 µM
same,TGI,SK-OV-3,97.7 µM
same,TGI,NCI-H522,26.3 µM
same,TGI,PC-3,10.5 µM
same,GI50,RXF 393,9.55 µM
same,GI50,NCI-H46,2.63 µM
same,CC50,LOX IMVI,45.7 µM
same,CC50,TK-10,45.7 µM
same,GI50,OVCAR-8,3.8 µM
same,CC50,NCI-H322M,50.1 µM
same,GI50,Tumor Cell line,97.7 µM
same,TGI,NCI-H226 [10],57.5 µM
same,CC50,UACC-257 [11],51.3 µM
same,CC50,Malme-3M [12],64.6 µM
same,TGI,Malme-3M [13],33.1 µM
same,TGI,HCT-15 [14],27.5 µM
same,GI50,NCI-H23 [15],13.8 µM
same,GI50,786-0 [16],16.2 µM
same,TGI,KM12,19.1 µM
same,CC50,OVCAR-5,91.2 µM
same,CC50,OVCAR-3,34.7 µM
same,CC50,A549,63.1 µM
same,CC50,T47D,38 µM
O=C(Nc1nccs1)c1cc2c(cc1Cl)Sc1nccn1S2(=O)=O,CC50,MCF7,44.7 µM
same,TGI,A498 [1],34.7 µM
same,TGI,UACC-257 [2],26.9 µM
same,CC50,786-0 [3],53.7 µM
same,CC50,SR,46.8 µM
same,CC50,UO-31,46.8 µM
same,CC50,NCI-H226 [17],64.6 µM
same,GI50,OVCAR-4,16.2 µM
same,GI50,A498 [5],19.1 µM
same,CC50,ACHN,58.9 µM
same,GI50,SK-MEL-5,16.6 µM
same,GI50,NCI-H226 [6],19.5 µM
same,CC50,SK-MEL-28,70.8 µM
same,TGI,HL-60,30.9 µM
same,TGI,SK-MEL-2,33.1 µM
same,CC50,SN12C [18],63.1 µM
same,TGI,SNB-75 [7],35.5 µM
same,CC50,MDA-MB-435,57.5 µM
same,GI50,SW-620 [9],17 µM
same,CC50,K562,87.1 µM
same,TGI,SN12C [19],32.4 µM
same,GI50,COLO 205,17 µM
same,TGI,SK-OV-3,64.6 µM
same,TGI,NCI-H522,2.82 µM
same,TGI,PC-3,33.1 µM
same,GI50,RXF 393,19.1 µM
same,GI50,NCI-H46,15.8 µM
same,CC50,BT-549,69.2 µM
same,CC50,LOX IMVI,60.3 µM
same,CC50,TK-10,63.1 µM
same,CC50,MDA-N,61.7 µM
same,GI50,OVCAR-8,17.4 µM
same,CC50,SNB-19,72.4 µM
same,CC50,NCI-H322M,64.6 µM
same,GI50,Tumor Cell line,28.2 µM
same,CC50,HCT-15 [20],93.3 µM
same,TGI,NCI-H226 [10],35.5 µM
same,CC50,SNB-75 [21],66.1 µM
same,CC50,UACC-257 [11],52.5 µM
same,CC50,Malme-3M [12],69.2 µM
same,TGI,Malme-3M [13],37.2 µM
same,TGI,HCT-15 [14],33.9 µM
same,CC50,MOLT-4,93.3 µM
same,GI50,NCI-H23 [15],17 µM
same,GI50,786-0 [16],15.8 µM
same,CC50,A498 [22],63.1 µM
same,CC50,NCI-H23 [23],67.6 µM
same,TGI,KM12,26.3 µM
same,TGI,SF-268,46.8 µM
same,CC50,CCRF-CEM,95.5 µM
same,CC50,OVCAR-5,97.7 µM
same,CC50,OVCAR-3,53.7 µM
